Experimental data published in US12714685B2, “Drug combination and its use in the treatment of cancer” (priority 2020, dated 2026).
Read-outs that look alike come from different tables or passages of the source.

Columns and labels:
[1] = tested on: glioblastoma; conditions: mouse xenografts; cited from earlier work
[2] = tested on: LN-18 cells; test: In vitro cytotoxicity (LDH release assay) on LN-18 glioma cells; conditions: for IC50: Homo sapiens, LN-18, 24 h
From the text: (§1) Two colorimetric assays were established to monitor cytotoxicity in response to the tested drugs, one measuring the release of lactate dehydrogenase (LDH) from cells, a well-established marker for cell toxicity, and the other measuring the activity of mitochondrial […], an indicator of cell viability, by the reduction of the soluble tetrazolium dye MTT. […] Cells were also monitored by direct microscopic observation. Controls included cells treated with medium without drug and cells treated with Camptothesin, a known cytotoxic agent, as positive control. Incubation with drug concentrations was carried out for 24 hours at 37° C.
(§2) DAB was tested in vitro under ideal conditions in absence of any competing physiological amino acid allowing low concentrations of 0.5, 1, 2, 3, 4, 5, 6, 8, 12, and 16 mM.
(§3) Prazosin was tested at concentrations of 0.1, 0.5, 1, 2, 5, 10, 20, 30 and 50 μM.
DAB was used at concentrations of 1, 2 and 4 mM. Each of these concentrations was tested alone or in combination with 1, 2 or 4 μM of Prazosin, i.e. the combinations tested were the following: • 1 mM DAB+1 μM Prazosin • 1 mM DAB+2 μM Prazosin • 1 mM DAB+4 μM Prazosin • 2 mM DAB+1 μM Prazosin • 2 mM DAB+2 μM Prazosin • 2 mM DAB+4 μM Prazosin • 4 mM DAB+1 μM Prazosin • 4 mM DAB+2 μM Prazosin • 4 mM DAB+4 μM Prazosin

[3] = tested on: HMC3 cells; test: In vitro cytotoxicity (LDH release assay) on non-malignant HMC3 cells; type: cell-based, human; conditions: 24 hours at 37° C.
From the text: as §1, §2, §3

[4] = Solubility in aqueous media
[5] = two clinical studies, small patient series; cited from earlier work
[6] = tested on: human glioma cells; conditions: cited from earlier work

Compound: COc1cc2nc(N3CCN(C(=O)c4ccco4)CC3)nc(N)c2cc1OC [Prazosin]
- glioblastoma growth [1]: inhibit glioblastoma growth
- cytotoxic effect against glioma cell line LN-18 (in words) [2]: strong cytotoxic effect
- IC50 ([2]; read-out: IC50, cytotoxic effect against glioma LN-18 line): 3.4 µM
- IC50 against non-malignant HMC3 cells [3]: no IC50 could be determined
- toxicity towards non-malignant HMC3 cells (in words) [3]: little cytotoxicity

Compound: NCC[C@H](N)C(=O)O [DAB, L-2,4 diaminobutyric acid]
- solubility in aqueous media [4]: soluble
- clinical benefit [5]: failed to demonstrate significant clinical benefit
- antitumoral activity in vitro [6]: antitumoral activity
- cytotoxic effect against glioma cell line LN-18 (in words) ([2]; 24 hours at 37° C.): strong cytotoxic effect
- IC50 ([2]; read-out: IC50, cytotoxic effect against glioma cell line LN-18): 3800 µM
- IC50 against non-malignant HMC3 cells [3]: no IC50 could be determined
- toxicity towards non-malignant HMC3 cells (in words) [3]: weak toxicity
